According to US20150030667A1, “COMPOSITIONS AND METHODS FOR TREATING U[…]” (priority 2013, published 2015):

System: bladder (detrusor) contractility of BoNT treated rats
Conditions: rat, in vivo

What does the source list for `CN(C)C(=O)Oc1cccc([N+](C)(C)C)c1` [neostigmine]?
amplitude of contraction: raised; baseline pressure: without affecting baseline pressure; contractility: improves contractility; duration of contraction: significant increase; duration of voiding contraction: increase; interval between bladder contractions: decrease
